Test results reported in PMC10046369, “Low-Affinity/High-Selectivity Dopamine Transport Inhibition Sufficient to Rescue Cognitive Functions in the Aging Rat” (Biomolecules, 2023).

Assays:
Assay in all cases: biochemical
Parameters in all cases: KINOMEscan competition binding panel, per cent of control
Conditions in all cases: read-out: %Ctrl @ 2800nM
DYRK1A = DYRK1A (Homo sapiens, UniProt Q13627)
In short: (§1)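 Competition binding panel (KINOMEscan) across 450 human kinases and disease-relevant mutants, run to the contractor's standard protocol. Values are % control: (test signal − positive control signal)/(negative control signal − positive control signal) × 100, with lower values indicating stronger binding.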

ADCK4 = target: T1, ADCK4 (Homo sapiens, UniProt Q96D53)
T1 construct: gene COQ8B
In short: as §1

AKT1 = AKT1 (Homo sapiens, UniProt P31749)
In short: as §1

CIT = CIT (Homo sapiens, UniProt O14578)
In short: as §1

[1] = target: T2, RSK4(Kin.Dom.1-N-terminal) (Homo sapiens, UniProt Q9UK32)
T2 construct: gene RPS6KA6; Kin.Dom.1-N-terminal
In short: as §1

CHEK1 = CHEK1 (Homo sapiens, UniProt O14757)
In short: as §1

GRK3 = GRK3 (Homo sapiens, UniProt P35626)
In short: as §1

NEK5 = NEK5 (Homo sapiens, UniProt Q6P3R8)
In short: as §1

EGFR = EGFR (Homo sapiens, UniProt P00533)
In short: as §1

PRKD3 = PRKD3 (Homo sapiens, UniProt O94806)
In short: as §1

PHKG1 = PHKG1 (Homo sapiens, UniProt Q16816)
In short: as §1

HCK = HCK (Homo sapiens, UniProt P08631)
In short: as §1

TEC = TEC (Homo sapiens, UniProt P42680)
In short: as §1

MARK3 = MARK3 (Homo sapiens, UniProt P27448)
In short: as §1

PLK4 = PLK4 (Homo sapiens, UniProt O00444)
In short: as §1

CDK8 = CDK8 (Homo sapiens, UniProt P49336)
In short: as §1

RIPK1 = RIPK1 (Homo sapiens, UniProt Q13546)
In short: as §1

CDK4-cyclinD1 = target: T3, CDK4-cyclinD1 (Homo sapiens, UniProt P11802)
T3 construct: cyclinD1
In short: as §1

PIK3CA(H1047L) = PIK3CA(H1047L) (Homo sapiens, UniProt P42336, H1047L)
In short: as §1

PRKG2 = PRKG2 (Homo sapiens, UniProt Q13237)
In short: as §1

PLK2 = PLK2 (Homo sapiens, UniProt Q9NYY3)
In short: as §1

GRK7 = GRK7 (Homo sapiens, UniProt Q8WTQ7)
In short: as §1

MST1 = target: T4, MST1 (Homo sapiens, UniProt Q13043)
T4 construct: gene STK4
In short: as §1

FLT3-autoinhibited = FLT3-autoinhibited (Homo sapiens, UniProt P36888)
In short: as §1

ALK = ALK (Homo sapiens, UniProt Q9UM73)
In short: as §1

EPHA5 = EPHA5 (Homo sapiens, UniProt P54756)
In short: as §1

ERBB3 = ERBB3 (Homo sapiens, UniProt P21860)
In short: as §1

T1 sequence (Q96D53 whole entry): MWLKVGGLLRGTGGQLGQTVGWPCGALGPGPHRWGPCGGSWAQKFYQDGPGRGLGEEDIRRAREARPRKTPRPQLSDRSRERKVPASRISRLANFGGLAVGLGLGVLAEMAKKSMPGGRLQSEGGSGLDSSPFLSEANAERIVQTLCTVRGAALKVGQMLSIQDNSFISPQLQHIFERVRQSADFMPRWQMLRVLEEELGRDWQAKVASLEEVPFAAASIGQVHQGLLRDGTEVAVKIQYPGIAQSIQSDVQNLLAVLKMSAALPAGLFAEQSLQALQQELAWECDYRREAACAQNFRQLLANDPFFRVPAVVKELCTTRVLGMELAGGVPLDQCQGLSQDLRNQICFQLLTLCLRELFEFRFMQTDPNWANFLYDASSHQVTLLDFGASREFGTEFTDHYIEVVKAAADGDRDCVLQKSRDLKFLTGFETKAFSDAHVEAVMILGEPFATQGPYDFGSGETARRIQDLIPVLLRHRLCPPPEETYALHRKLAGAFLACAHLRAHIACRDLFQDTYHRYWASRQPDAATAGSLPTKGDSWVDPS
Chain of PHKG1 (Q16816 whole entry): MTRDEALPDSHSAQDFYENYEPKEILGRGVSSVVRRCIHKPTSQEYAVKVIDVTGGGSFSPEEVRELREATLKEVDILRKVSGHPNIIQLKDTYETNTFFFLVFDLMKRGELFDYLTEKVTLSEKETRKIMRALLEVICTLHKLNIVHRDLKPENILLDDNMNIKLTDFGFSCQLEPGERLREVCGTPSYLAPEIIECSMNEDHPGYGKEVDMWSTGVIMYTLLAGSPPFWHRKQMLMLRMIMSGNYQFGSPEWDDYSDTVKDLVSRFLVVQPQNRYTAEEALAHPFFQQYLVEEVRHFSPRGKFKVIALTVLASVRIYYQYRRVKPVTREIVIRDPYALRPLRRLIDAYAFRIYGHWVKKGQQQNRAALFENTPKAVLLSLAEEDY
Chain of FLT3-autoinhibited (P36888 whole entry): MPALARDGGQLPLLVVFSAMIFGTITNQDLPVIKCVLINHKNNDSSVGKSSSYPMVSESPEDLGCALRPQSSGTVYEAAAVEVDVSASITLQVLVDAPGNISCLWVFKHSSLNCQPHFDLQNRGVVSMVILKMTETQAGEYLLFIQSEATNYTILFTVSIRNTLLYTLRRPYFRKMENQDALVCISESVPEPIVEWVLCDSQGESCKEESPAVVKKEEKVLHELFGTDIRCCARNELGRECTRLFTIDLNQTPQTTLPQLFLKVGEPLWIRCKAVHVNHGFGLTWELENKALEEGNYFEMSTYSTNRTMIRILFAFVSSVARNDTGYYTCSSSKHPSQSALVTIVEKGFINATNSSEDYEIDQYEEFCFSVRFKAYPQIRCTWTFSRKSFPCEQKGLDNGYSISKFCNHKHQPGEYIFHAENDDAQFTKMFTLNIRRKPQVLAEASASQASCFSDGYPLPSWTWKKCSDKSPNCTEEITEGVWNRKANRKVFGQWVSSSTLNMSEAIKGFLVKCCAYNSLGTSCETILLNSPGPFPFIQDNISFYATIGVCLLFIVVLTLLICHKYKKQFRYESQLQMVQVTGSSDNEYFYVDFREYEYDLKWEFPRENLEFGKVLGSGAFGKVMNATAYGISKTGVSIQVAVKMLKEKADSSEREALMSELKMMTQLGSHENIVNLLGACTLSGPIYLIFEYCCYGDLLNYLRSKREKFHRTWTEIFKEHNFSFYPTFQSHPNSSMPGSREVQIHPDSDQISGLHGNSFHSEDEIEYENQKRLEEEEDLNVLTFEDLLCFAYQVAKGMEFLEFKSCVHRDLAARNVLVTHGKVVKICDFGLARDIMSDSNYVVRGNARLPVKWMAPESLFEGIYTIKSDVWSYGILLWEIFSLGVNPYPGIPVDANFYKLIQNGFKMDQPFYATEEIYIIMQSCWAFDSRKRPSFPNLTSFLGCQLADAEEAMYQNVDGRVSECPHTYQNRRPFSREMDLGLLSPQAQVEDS
Chain of ALK (Q9UM73 whole entry): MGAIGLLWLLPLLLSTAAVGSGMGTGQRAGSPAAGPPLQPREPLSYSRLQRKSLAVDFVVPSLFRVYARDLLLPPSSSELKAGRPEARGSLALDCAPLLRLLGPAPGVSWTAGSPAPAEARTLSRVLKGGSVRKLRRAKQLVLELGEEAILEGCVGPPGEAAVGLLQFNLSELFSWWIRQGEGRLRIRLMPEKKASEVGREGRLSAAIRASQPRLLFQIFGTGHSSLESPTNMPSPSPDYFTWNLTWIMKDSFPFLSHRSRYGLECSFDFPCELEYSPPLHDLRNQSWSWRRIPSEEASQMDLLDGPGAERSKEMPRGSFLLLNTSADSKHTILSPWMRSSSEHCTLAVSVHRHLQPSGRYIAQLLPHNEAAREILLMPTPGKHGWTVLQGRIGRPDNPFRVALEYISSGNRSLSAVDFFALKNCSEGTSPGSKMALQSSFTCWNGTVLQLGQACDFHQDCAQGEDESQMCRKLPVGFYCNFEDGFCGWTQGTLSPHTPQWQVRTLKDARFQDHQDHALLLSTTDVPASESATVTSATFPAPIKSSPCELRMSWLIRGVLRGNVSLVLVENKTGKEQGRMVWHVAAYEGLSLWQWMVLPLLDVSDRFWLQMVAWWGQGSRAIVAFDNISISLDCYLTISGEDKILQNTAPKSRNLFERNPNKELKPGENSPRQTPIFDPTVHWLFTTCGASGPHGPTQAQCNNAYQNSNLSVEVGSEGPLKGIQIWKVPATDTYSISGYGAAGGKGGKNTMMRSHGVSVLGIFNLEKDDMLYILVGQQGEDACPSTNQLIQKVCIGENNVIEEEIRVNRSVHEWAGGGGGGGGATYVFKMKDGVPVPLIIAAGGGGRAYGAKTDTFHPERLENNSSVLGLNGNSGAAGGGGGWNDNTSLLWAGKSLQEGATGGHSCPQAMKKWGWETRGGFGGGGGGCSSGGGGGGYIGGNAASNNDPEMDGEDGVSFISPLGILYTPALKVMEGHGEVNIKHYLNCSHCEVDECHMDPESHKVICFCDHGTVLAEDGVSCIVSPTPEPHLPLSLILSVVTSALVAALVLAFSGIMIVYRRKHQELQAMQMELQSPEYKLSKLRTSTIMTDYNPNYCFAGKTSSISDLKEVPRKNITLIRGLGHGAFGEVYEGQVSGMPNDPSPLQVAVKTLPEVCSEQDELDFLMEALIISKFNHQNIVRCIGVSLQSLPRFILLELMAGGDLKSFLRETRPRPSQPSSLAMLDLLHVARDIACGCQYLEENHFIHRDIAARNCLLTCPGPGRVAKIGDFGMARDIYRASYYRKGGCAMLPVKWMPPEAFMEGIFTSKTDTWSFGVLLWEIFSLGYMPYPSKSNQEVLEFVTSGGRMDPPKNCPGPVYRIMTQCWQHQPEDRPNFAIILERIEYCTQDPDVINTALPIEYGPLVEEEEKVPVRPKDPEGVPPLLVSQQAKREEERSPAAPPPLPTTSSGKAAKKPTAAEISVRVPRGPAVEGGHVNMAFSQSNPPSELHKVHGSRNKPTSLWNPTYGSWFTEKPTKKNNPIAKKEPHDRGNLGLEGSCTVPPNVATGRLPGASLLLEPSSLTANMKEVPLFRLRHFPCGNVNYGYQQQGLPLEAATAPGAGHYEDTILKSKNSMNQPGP
Chain of AKT1 (P31749 whole entry): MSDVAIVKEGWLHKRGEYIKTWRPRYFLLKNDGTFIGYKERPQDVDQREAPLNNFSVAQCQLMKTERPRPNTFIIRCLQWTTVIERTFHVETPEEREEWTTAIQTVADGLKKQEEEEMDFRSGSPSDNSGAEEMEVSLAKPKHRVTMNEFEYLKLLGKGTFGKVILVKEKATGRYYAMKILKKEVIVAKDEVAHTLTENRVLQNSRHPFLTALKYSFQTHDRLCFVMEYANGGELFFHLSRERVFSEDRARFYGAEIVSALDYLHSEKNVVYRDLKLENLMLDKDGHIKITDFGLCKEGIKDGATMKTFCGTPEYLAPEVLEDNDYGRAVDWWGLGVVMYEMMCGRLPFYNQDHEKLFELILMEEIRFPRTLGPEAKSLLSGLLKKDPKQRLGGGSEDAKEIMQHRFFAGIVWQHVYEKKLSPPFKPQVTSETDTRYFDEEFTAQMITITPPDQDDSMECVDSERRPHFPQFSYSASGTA
Chain of NEK5 (Q6P3R8 whole entry): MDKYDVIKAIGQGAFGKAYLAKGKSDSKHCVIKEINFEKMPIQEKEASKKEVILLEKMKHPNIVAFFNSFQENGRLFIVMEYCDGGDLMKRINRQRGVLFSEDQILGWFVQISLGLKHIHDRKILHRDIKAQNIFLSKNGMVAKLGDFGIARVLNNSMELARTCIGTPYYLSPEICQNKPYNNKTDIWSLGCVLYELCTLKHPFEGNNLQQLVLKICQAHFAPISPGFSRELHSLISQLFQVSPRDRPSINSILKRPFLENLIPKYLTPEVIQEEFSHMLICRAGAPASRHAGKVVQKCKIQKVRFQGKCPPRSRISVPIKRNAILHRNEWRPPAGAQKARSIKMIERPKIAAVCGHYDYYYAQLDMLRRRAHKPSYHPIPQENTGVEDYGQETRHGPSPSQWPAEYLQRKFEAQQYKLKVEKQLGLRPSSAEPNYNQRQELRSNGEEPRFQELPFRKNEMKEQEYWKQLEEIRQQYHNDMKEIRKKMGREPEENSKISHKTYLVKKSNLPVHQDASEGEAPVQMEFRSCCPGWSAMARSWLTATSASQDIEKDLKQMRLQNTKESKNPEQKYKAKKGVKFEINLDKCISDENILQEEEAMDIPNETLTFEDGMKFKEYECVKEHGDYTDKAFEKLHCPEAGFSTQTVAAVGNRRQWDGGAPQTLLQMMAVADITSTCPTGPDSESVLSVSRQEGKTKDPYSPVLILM

`[O-][S@@+](Cc1cncs1)C(c1ccccc1)c1ccccc1` [S-CE-123, (S)-5-((Benzhydrylsulfinyl)Methyl)Thiazole] showed a remaining binding at 2.8 µM (DYRK1A) of 96%, a remaining binding at 2.8 µM (ADCK4) of 96% and a remaining binding at 2.8 µM (AKT1) of 99%. The remaining binding at 2.8 µM (CIT) was 74%, the remaining binding at 2.8 µM [1] was 100% and the remaining binding at 2.8 µM (CHEK1) was 89%. The remaining binding at 2.8 µM (GRK3) was 100%, the remaining binding at 2.8 µM (NEK5) was 90% and the remaining binding at 2.8 µM (EGFR) was 92%. For the same compound, the remaining binding at 2.8 µM (PRKD3) was 96%, the remaining binding at 2.8 µM (PHKG1) was 100% and the remaining binding at 2.8 µM (HCK) was 99%. It also gave a remaining binding at 2.8 µM (TEC) of 100%, a remaining binding at 2.8 µM (MARK3) of 70% and a remaining binding at 2.8 µM (PLK4) of 89%. The remaining binding at 2.8 µM (CDK8) was 96%, the remaining binding at 2.8 µM (RIPK1) was 80% and the remaining binding at 2.8 µM (CDK4-cyclinD1) was 100%. The remaining binding at 2.8 µM (PIK3CA(H1047L)) was 100%, the remaining binding at 2.8 µM (PRKG2) was 99% and the remaining binding at 2.8 µM (PLK2) was 89%. It also gave a remaining binding at 2.8 µM (GRK7) of 90%, a remaining binding at 2.8 µM (MST1) of 97% and a remaining binding at 2.8 µM (FLT3-autoinhibited) of 99%. For the same compound, the remaining binding at 2.8 µM (ALK) was 100%, the remaining binding at 2.8 µM (EPHA5) was 86% and the remaining binding at 2.8 µM (ERBB3) was 89%.
